Results from paper PMC11050599, “Novel Tetracyclic Azaphenothiazines with the Quinoline Ring as New Anticancer and Antibacterial Derivatives of Chlorpromazine” (International Journal of Molecular Sciences, 2024).
Converted amounts (≈) assume the structure as drawn. Read-outs that look alike come from different tables or passages of the source.

Columns and labels:
A549 (lung cancer) = test: MTT assay, A549 cells; format: cell-based, human; conditions: for IC50: Homo sapiens, read-out: IC50 A549
Protocol: (§1) The human cell lines, such as A549 (lung cancer), MDA-MB-231 (breast cancer), MiaPaca-2 (pancreatic cancer), PC3 (metastatic prostate cancer), HCT-116 (colon carcinoma), and HaCaT (immortalized keratinocytes), were sourced from the American Type Culture Collection (ATCC) in Rockville, USA. Culturing conditions varied as follows: HCT116 cells were cultured in MEM (ThermoSci, Waltham, MA, USA), A549, MDA-MB-231, MiaPaca, HaCaT cells in DMEM High Glucose and PC3 cells were cultured in RPMI (Biowest SAS, Nuaillé, France). The growth medium consisted of 10% fetal bovine serum (FBS, Sigma-Aldrich, St. Louis, MO, USA), 20 mM HEPES (Biowest, Nuaillé, France), and antibiotics (100 U/mL of penicillin and 100 μg/mL of streptomycin) from Gibco, Grand Island, NY, USA. […] These compounds were added to 96-well plates containing study cells (1 × 10^4 cells per well) and incubated for 72 h. […] Cell absorbance results were incorporated into the formula for calculating the relative MTT level (%), enabling the assessment of cell viability following exposure to the test compounds. The cell viability percentage represents the MTT reduction in cells treated with the test compounds compared to the control sample, where only the medium was added to the cells.

[1] = system: MDA-MB-231 (breast cancer); test: MTT assay, MDA-MB-231 cells; format: cell-based, human; conditions: for IC50: Homo sapiens, read-out: IC50 MDA; for SI MDA: SI = IC50 for normal cell line (HaCaT)/IC50 cancer cell line
Protocol: as §1

[2] = system: HaCaT (immortalized human keratinocytes); test: MTT assay, HaCaT normal cells; format: cell-based; conditions: Homo sapiens, HaCaT, 72 h, read-out: IC50 HaCaT (Table 3)
Protocol: as §1

[3] = system: MiaPaCa-2 (pancreas cancer); test: MTT assay, MiaPaCa-2 cells; format: cell-based, human; conditions: for IC50: Homo sapiens, read-out: IC50 MiaPaCa-2; for SI MiaPaCa-2: SI = IC50 for normal cell line (HaCaT)/IC50 cancer cell line
Protocol: as §1

PC3 (prostate cancer) = test: MTT assay, PC3 cells; format: cell-based, human; conditions: for IC50: Homo sapiens, read-out: IC50 PC3; for SI PC3: SI = IC50 for normal cell line (HaCaT)/IC50 cancer cell line
Protocol: as §1

HCT116 (colon cancer) = test: MTT assay, HCT116 cells; format: cell-based, human; conditions: for IC50: Homo sapiens, read-out: IC50 HCT116; for SI HCT116: SI = IC50 for normal cell line (HaCaT)/IC50 cancer cell line
Protocol: as §1

E. coli ATCC 25922 = test: MIC broth microdilution; format: cell-based; conditions: Escherichia coli, read-out: MIC E. coli ATCC 25922
From the text: (§2) To evaluate the antibacterial effectiveness of chloroquinobenzothiazine derivatives, various bacterial strains from international microbe collections such as the American Type Culture Collection (ATCC) and the National Collection of Type Culture (NCTC) were examined, alongside a panel of clinical rods. This included two Gram-negative organisms, E. coli ATCC 25922 and P. aeruginosa ATCC 15442, and a series of six Gram-positive strains: S. aureus NCTC 4163; S. aureus ATCC 29213, 25923, and 6538; and S. epidermidis ATCC 12228 and 35984. […] The MIC was determined using the two-fold serial broth microdilution method in 96-well microtitration plates containing Mueller-Hinton II broth medium (Becton Dickinson, Franklin Lakes, NJ, USA). The final inoculum for all tested bacteria was adjusted to […] (colony-forming units per milliliter). The stock solution of the tested compounds was prepared in dimethyl sulfoxide (DMSO) and diluted to a maximum of 1% solvent content with a sterile medium.

P. aeruginosa ATCC 15442 = test: MIC broth microdilution; format: cell-based; conditions: Pseudomonas aeruginosa, read-out: MIC P. aeruginosa ATCC 15442
From the text: as §2

S. aureus ATCC 25923 = test: MIC broth microdilution; format: cell-based; conditions: Staphylococcus aureus, read-out: MIC S. aureus ATCC 25923
From the text: as §2

S. aureus ATCC 29213 = test: MIC broth microdilution; format: cell-based; conditions: Staphylococcus aureus, read-out: MIC S. aureus ATCC 29213
From the text: as §2

S. aureus ATCC 6538 = test: MIC broth microdilution; format: cell-based; conditions: Staphylococcus aureus, read-out: MIC S. aureus ATCC 6538
From the text: as §2

S. aureus NCTC 4163 = test: MIC broth microdilution; format: cell-based; conditions: Staphylococcus aureus, read-out: MIC S. aureus NCTC 4163
From the text: as §2

[4] = system: S. epidermidis ATCC 12228; test: MIC broth microdilution; format: cell-based; conditions: Staphylococcus epidermidis, read-out: MIC S. epidermidis ATCC 12228
From the text: as §2

[5] = system: S. epidermidis ATCC 35984; test: MIC broth microdilution; format: cell-based; conditions: for MIC: Staphylococcus epidermidis, read-out: MIC S. epidermidis ATCC 35984
From the text: as §2

A549 cells = test: Annexin V-FITC/PI apoptosis flow cytometry, A549; format: cell-based, human; conditions: representative dot plot, Figure 4A, IC50, 72 h
Protocol: (§3) To analyze the number of cells in early apoptosis, late apoptosis, or necrosis, A549, MiaPaca-2, and HCT-116 cell lines were cultured in 6-well plates with a seeding density of 1 × 10^5 cells per well. These cells were then treated with selected compounds (4, 5, and 8) at their respective IC50 concentrations and incubated for 72 h. Subsequently, a commercially available kit, the FITC: Annexin V Apoptosis Detection Kit I from BD Biosciences Pharmingen in San Jose, CA, USA, was utilized to assess apoptosis. After 72 h the cells were harvested, washed, and labeled with Annexin V-FITC and propidium iodide (PI) following the manufacturer’s protocol (Becton Dickinson), as previously described. The stained cells were analyzed by flow cytometry. The cells were identified as early apoptotic (Annexin V+/PI−) or late apoptotic/necrotic (Annexin V+/PI+).

HCT116 cells [6] = test: Annexin V-FITC/PI apoptosis flow cytometry, HCT116; format: cell-based, human; conditions: representative dot plot, Figure 4C, IC50, 72 h
Protocol: as §3

HCT116 cells [7] = test: Cell cycle analysis by flow cytometry, HCT116; format: cell-based, human; conditions: IC50, 24 h, compared to the control
Protocol: In brief, cells were seeded at a density of 1 × 10^5 cells/well on a six-well plate and allowed to adhere for 24 h. […] Both population cells (the attached and detached) were collected and centrifuged at 400× g for 5 min at 4 °C. After centrifugation, the cells were washed twice with 0.9% NaCl and subsequently fixed in 500 μL of 70 % cold ethanol overnight.
Before analysis, the fixed cells underwent another centrifugation step at 850× g for 5 min at 4 °C and were washed with PBS. Following the washes, the cells were incubated with 50 μL of RNase (100 μg/mL) and 200 μL of propidium iodide (PI) (50 μg/mL) at 37 °C for 30 min in the dark. Finally, 100 μL of PBS was added to each sample. Flow cytometry (Becton Dickinson FACS Verse, Franklin Lakes, NJ, USA) was then used to analyze the cell cycle distribution, identifying cells in various stages including sub-G1, G0/G1, S, and G2/M phases. Each assay was performed in quadruplicate.

cancer cell lines = test: MTT assay, summary over several cell lines; format: cell-based, human; conditions: Homo sapiens; range over two cell lines not given; read-out: IC50 range against two tested cell lines
Protocol: as §1

MiaPaCa-2 cells = test: Annexin V-FITC/PI apoptosis flow cytometry, MiaPaCa-2; format: cell-based, human
Protocol: as §3

[8] = representative dot plot, Figure 4B, IC50, 72 h

O=C(NCCCl)NCCCN1c2cc(Cl)ccc2Sc2cc3ccccc3nc21 [Compound 20, 1-(3-(8-Chloroquino[3,2-b]benzo[1,4]thiazin-6-yl)propyl)-3-(2-chloroethyl)urea]
IC50 (A549 (lung cancer); A549, 72 h): 9.3 ± 1.2 µM | IC50 ([1]; MDA-MB-231, 72 h): 48.6 ± 7.3 µM | SI MDA [1]: 2.0 | IC50 [2]: > 100 µM | IC50 ([3]; MIA PaCa-2, 72 h): 23.2 ± 2.7 µM | SI MiaPaCa-2 [3]: 4.3 | IC50 (PC3 (prostate cancer); PC-3, 72 h): 34.8 ± 9.8 µM | SI PC3 (PC3 (prostate cancer)): 2.8 | IC50 (HCT116 (colon cancer); HCT-116, 72 h): 10.4 ± 1.6 µM | SI HCT116 (HCT116 (colon cancer)): 8.8 | MIC (E. coli ATCC 25922; ATCC25922, 19 h): > 256 µg/mL | MIC (P. aeruginosa ATCC 15442; ATCC15442, 19 h): > 256 µg/mL | MIC (S. aureus ATCC 25923; ATCC25923, 19 h): 8 µg/mL (≈ 17.9 µM) | MIC (S. aureus ATCC 29213; ATCC29213, 19 h): 8 µg/mL (≈ 17.9 µM) | MIC (S. aureus ATCC 6538; ATCC6538, 19 h): 8 µg/mL (≈ 17.9 µM) | MIC (S. aureus NCTC 4163; NCTC4163, 19 h): 8 µg/mL (≈ 17.9 µM) | MIC ([4]; ATCC12228, 19 h): 8 µg/mL (≈ 17.9 µM) | MIC S. epidermidis ATCC 35984 ([5]; 19 h, 35 °C): 4 µg/mL (≈ 8.94 µM) | MIC ([5]; ATCC35984, 19 h): 4 µg/mL (≈ 8.94 µM) | A549: Alive (A549 cells): 88.24% | A549: Early Apoptotic (A549 cells): 0.13% | A549: Necrotic (A549 cells): 10.74% | A549: Necrotic/Late Apoptotic (A549 cells): 0.89% | HCT-116: Alive (HCT116 cells [6]): 83.79% | HCT-116: Early Apoptotic (HCT116 cells [6]): 7.24% | HCT-116: Necrotic (HCT116 cells [6]): 4.80% | HCT-116: Necrotic/Late Apoptotic (HCT116 cells [6]): 4.17% | increase in the cell amount at the sub-G1 phase, HCT116 (HCT116 cells [7]): 3 fold

Clc1ccc2c(c1)Nc1nc3ccccc3cc1S2 [Compound 5, 6H-8-chloroquino[3,2-b]benzo[1,4]thiazine]
IC50 (A549 (lung cancer); A549, MTT, 72 h, mean SD): 14.9 ± 2.7 µM | SI A549 (A549 (lung cancer); SI = IC50 for normal cell line (HaCaT)/IC50 cancer cell line): 3.8 | IC50 ([1]; MDA-MB-231, MTT, 72 h, MDA-MB231): 76.5 ± 0.8 µM | SI MDA [1]: 0.7 | IC50 ([2]; MTT, normal cells): 56.5 ± 4.5 µM | IC50 ([3]; MIA PaCa-2, MTT, 72 h): 11.1 ± 0.4 µM | SI MiaPaCa-2 [3]: 5.0 | IC50 (PC3 (prostate cancer); PC-3, MTT, 72 h): 76.5 ± 8.1 µM | SI PC3 (PC3 (prostate cancer)): 0.7 | IC50 (HCT116 (colon cancer); HCT-116, MTT, 72 h): 33.5 ± 6.8 µM | SI HCT116 (HCT116 (colon cancer)): 1.7 | MIC (E. coli ATCC 25922; ATCC25922, 19 h, 35 °C): 256 µg/mL (≈ 899 µM) | MIC (P. aeruginosa ATCC 15442; ATCC15442, 19 h, 35 °C): 256 µg/mL (≈ 899 µM) | MIC (S. aureus ATCC 25923; ATCC25923, 19 h, 35 °C): 8 µg/mL (≈ 28.1 µM) | MIC (S. aureus ATCC 29213; ATCC29213, 19 h, 35 °C): 8 µg/mL (≈ 28.1 µM) | MIC (S. aureus ATCC 6538; ATCC6538, 19 h, 35 °C): 8 µg/mL (≈ 28.1 µM) | MIC (S. aureus NCTC 4163; NCTC4163, 19 h, 35 °C): 8 µg/mL (≈ 28.1 µM) | MIC ([4]; ATCC12228, 19 h, 35 °C): 8 µg/mL (≈ 28.1 µM) | MIC ([5]; ATCC35984, 19 h, 35 °C): 8 µg/mL (≈ 28.1 µM) | IC50 (cancer cell lines): 11.1 to 14.9 µM | cells in early apoptosis, MiaPaCa-2 (MiaPaCa-2 cells; compound at IC50, 72 h): 4.56% | cells in late apoptosis/necrosis, MiaPaCa-2 (MiaPaCa-2 cells; compound at IC50, 72 h): 23% | MiaPaca: Alive (MiaPaCa-2 cells; [8]): 72.68% | MiaPaca: Early Apoptotic (MiaPaCa-2 cells; [8]): 4.56% | MiaPaca: Necrotic (MiaPaCa-2 cells; [8]): 9.46% | MiaPaca: Necrotic/Late Apoptotic (MiaPaCa-2 cells; [8]): 13.29%
